The values that follow are results of earlier work, collected in US11857510B2, “Methods and compositions for treating congenital diarrhea disorder” (NAPO PHARMACEUTICALS, INC., priority 2017, dated 2024).

The conditions of this series: human, in vivo.

Turning to Crofelemer, the “absorption from the GI tract” value is reported as “little or no absorption”, the systemic bioavailability result was “virtually no systemic bioavailability” and the tolerability result is “well tolerated”.
